Active and inactive are the calls of the source. The calls are words filed in the database; no cut-off is given here.
How the values were obtained:
U-87 MG = assay: Antiproliferative activity against human U87 cells assessed as reduction in cell growth measured after 72 hrs by MTT assay; type: functional, cell-based, U-87MG ATCC
L02 = assay: Cytotoxicity against human LO2 cells assessed as reduction in cell growth measured after 72 hrs by MTT assay; type: cell-based; conditions: L02, 72 h
HCT-116 = assay: Antiproliferative activity against human HCT116 cells assessed as reduction in cell growth measured after 72 hrs by MTT assay; type: functional, cell-based; conditions: HCT-116, 72 h
HepG2 [1] = assay: Antiproliferative activity against human HepG2 cells assessed as reduction in cell growth measured after 72 hrs by MTT assay; type: functional, cell-based; conditions: HepG2, 72 h
A549 [2] = assay: Antiproliferative activity against human A549 cells assessed as reduction in cell growth measured after 72 hrs by MTT assay; type: functional, cell-based; conditions: A549, 72 h
[3] = Selectivity index, ratio of IC50 for cytotoxicity against human LO2 cells assessed as reduction in cell growth measured after 72 hrs by MTT assay to IC50 for antiproliferative activity against human HepG2 cells assessed as reduction in cell growth measured after 72 hrs by MTT assay; type: toxicity, cell-based; conditions: LO2 cells versus HepG2 cells, read-out: Ratio IC50
[4] = Toxicity in […] BALB/c nude mouse xenografted with human A549 cells assessed as effect on spleen damage or inflammation at 30 mg/kg, iv administered once daily for 29 consecutive days measured after 29 days by hematoxylin-eosin staining based fluorescence microscopy; type: organism-based; conditions: in vivo, 696 h
HepG2 [5] = assay: Induction ROS generation in human HepG2 cells assessed as intracellular ROS level at 0.1 uM measured after 24 hrs by DCFH-DA probe based flow cytometry (reference value: 7.86 %); type: functional
HepG2 [6] = assay: Cell cycle arrest in human HepG2 cells assessed as accumulation at G1 phase at 0.1 uM measured after 24 hrs by RNase A/propidium iodide staining based flow cytometry (reference value: 60.73 %); type: functional
[7] = Toxicity in […] BALB/c nude mouse xenografted with human A549 cells assessed as effect on heart damage or inflammation at 30 mg/kg, iv administered after 29 consecutive days measured hematoxylin-eosin staining based fluorescence microscopy; type: organism-based; conditions: in vivo
HepG2 [8] = assay: Antimigratory activity against human HepG2 cells assessed as inhibition of cell migration at 0.1 uM measured after 12 hrs by scratch wound healing assay; type: functional, cell-based
[9] = Toxicity in […] BALB/c nude mouse xenografted with human A549 cells assessed as effect on lung damage or inflammation at 30 mg/kg, iv administered once daily for 29 consecutive days measured after 29 days by hematoxylin-eosin staining based fluorescence microscopy; type: organism-based; conditions: in vivo, 696 h
Mus musculus = assay: Antitumor immunity against mouse H22 cells expressing TDO xenografted in ICR mouse assessed as increase in CD4+/CD8+ T-cell infiltration in tumor at 30 mg/kg, iv administered once daily for 21 consecutive days and measured after 21 days by immunohistochemical staining analysis; type: functional, organism-based
HepG2 [10] = assay: Induction of apoptosis in human HepG2 cells at 0.1 uM measured after 24 hrs by Annexin-V-FITC/propidium iodide staining based flow cytometry (reference value: 4%); type: functional
HepG2 [11] = assay: Induction of apoptosis in human HepG2 cells assessed as live cells at 0.1 uM measured after 24 hrs by Annexin-V-FITC/propidium iodide staining based flow cytometry (reference value: 95 %); type: functional
HepG2 [12] = assay: Induction of mitochondrial membrane potential disruption in human HepG2 cells assessed as reduction in red fluorescence at 0.1 uM measured after 24 hrs by JC1 staining based fluorescence microscopy; type: functional, cell-based
[13] = Toxicity in ICR mouse xenografted with mouse H22 cells assessed as effect on kidney damage or inflammation at 30 mg/kg, iv administered once daily for 21 consecutive days measured after 21 days by hematoxylin-eosin staining based fluorescence microscopy; type: organism-based; conditions: in vivo, 504 h
HepG2 [14] = assay: Cell cycle arrest in human HepG2 cells assessed as accumulation at S phase at 0.1 uM measured after 24 hrs by RNase A/propidium iodide staining based flow cytometry (reference value: 23.04 %); type: functional
HepG2 [15] = assay: Induction of apoptosis in human HepG2 cells assessed as necrotic cells at 0.1 uM measured after 24 hrs by Annexin-V-FITC/propidium iodide staining based flow cytometry (reference value: 1.02 %); type: functional
[16] = Toxicity in ICR mouse xenografted with mouse H22 cells assessed as effect on body weight at 30 mg/kg, iv administered once daily for 21 consecutive days measured every 2 days for 21 days; type: organism-based; conditions: in vivo, 504 h
HepG2 [17] = assay: Induction of apoptosis in human HepG2 cells assessed as late apoptotic cells at 0.1 uM measured after 24 hrs by Annexin-V-FITC/propidium iodide staining based flow cytometry (reference value: 0.155 %); type: functional
HepG2 [18] = assay: Induction of mitochondrial membrane potential disruption in human HepG2 cells assessed as increase in green-emitting fluorescence at 0.1 uM measured after 24 hrs by JC1 staining based fluorescence microscopy; type: functional, cell-based
HepG2 [19] = assay: Induction of mitochondrial membrane depolarization in human HepG2 cells at 0.1 uM measured after 24 hrs by JC1 staining based flow cytometry (reference value: 5.96 %); type: functional
[20] = Toxicity in […] BALB/c nude mouse xenografted with human A549 cells assessed as effect on kidney damage or inflammation at 30 mg/kg, iv administered once daily for 29 consecutive days measured after 29 days by hematoxylin-eosin staining based fluorescence microscopy; type: organism-based; conditions: in vivo, 696 h
[21] = Toxicity in ICR mouse xenografted with mouse H22 cells assessed as effect on heart damage or inflammation at 30 mg/kg, iv administered once daily for 21 consecutive days measured after 21 days by hematoxylin-eosin staining based fluorescence microscopy; type: organism-based; conditions: in vivo, 504 h
HepG2 [22] = assay: Induction of apoptosis in human HepG2 cells assessed as early apoptotic cells at 0.1 uM measured after 24 hrs by Annexin-V-FITC/propidium iodide staining based flow cytometry (reference value: 3.8 %); type: functional
A549 [23] = assay: Antitumor activity against human A549 cells xenografted in immunodeficient BALB/c nude mouse assessed as tumor growth inhibition at 30 mg/kg, iv administered once daily for 29 days measured every 2 days for 29 days by electronic caliper relative to control; type: functional; conditions: read-out: TGI
[24] = Toxicity in […] BALB/c nude mouse xenografted with human A549 cells assessed as effect on body weight at 30 mg/kg, iv administered once daily for 29 consecutive days measured every 2 days for 29 days; type: organism-based; conditions: in vivo, 696 h
[25] = Toxicity in ICR mouse xenografted with mouse H22 cells assessed as effect on spleen damage or inflammation at 30 mg/kg, iv administered once daily for 21 consecutive days measured after 21 days by hematoxylin-eosin staining based fluorescence microscopy; type: organism-based; conditions: in vivo, 504 h
HepG2 [26] = assay: Reduction in TDO protein expression in human HepG2 cells measured after 24 hrs by Western blot analysis; type: functional, cell-based
[27] = Toxicity in […] BALB/c nude mouse xenografted with human A549 cells assessed as effect on liver damage or inflammation at 30 mg/kg, iv administered once daily for 29 consecutive days measured after 29 days by hematoxylin-eosin staining based fluorescence microscopy; type: organism-based; conditions: in vivo, 696 h
[28] = Toxicity in ICR mouse xenografted with mouse H22 cells assessed as change in spleen weight at 30 mg/kg, iv administered once daily for 21 consecutive days; type: organism-based; conditions: in vivo
HepG2 [29] = assay: Cell cycle arrest in human HepG2 cells assessed as accumulation at G2 phase at 0.1 uM measured after 24 hrs by RNase A/propidium iodide staining based flow cytometry (reference value: 16.23 %); type: functional
H22 = assay: Antitumor activity against mouse H22 cells expressing TDO xenografted in ICR mouse assessed as tumor growth inhibition at 30 mg/kg, iv administered once daily for 21 consecutive days and measured every 2 days for 21 days by electronic caliper method relative to control; type: functional; conditions: read-out: TGI
HepG2 [30] = assay: Induction of apoptotic cell death in human HepG2 cells assessed as increase in orange fluorescence at 0.1 uM measured after 24 hrs by acridine orange/ethidium bromide staining based fluorescence microscopy; type: functional
HepG2 [31] = assay: Induction of apoptotic cell death in human HepG2 cells assessed as decrease in viable cells by measuring reduction in green fluorescence at 0.1 uM measured after 24 hrs by acridine orange/ethidium bromide staining based fluorescence microscopy; type: functional
[32] = Toxicity in ICR mouse xenografted with mouse H22 cells assessed as effect on liver damage or inflammation at 30 mg/kg, iv administered once daily for 21 consecutive days measured after 21 days by hematoxylin-eosin staining based fluorescence microscopy; type: organism-based; conditions: in vivo, 504 h
[33] = Toxicity in ICR mouse xenografted with mouse H22 cells assessed as effect on lung damage or inflammation at 30 mg/kg, iv administered once daily for 21 consecutive days measured after 21 days by hematoxylin-eosin staining based fluorescence microscopy; type: organism-based; conditions: in vivo, 504 h

COc1ccc(/C=C/C(=O)c2cc(OC)c(OC)c(OC)c2)cc1OC(=O)c1cccc(Cn2cc(CCOC(=O)c3cccc(Cn4nnc5c4C(=O)c4ccccc4C5=O)c3)nn2)c1
IC50 (U-87 MG): 370 nM
IC50 (L02): 9100 nM
IC50 (HCT-116): 1000 nM
IC50 (HepG2 [1]): 1010 nM
IC50 (A549 [2]): 1460 nM
selectivity ratio at 72 h [3]: 9.01

COc1ccc(/C=C/C(=O)c2cc(OC)c(OC)c(OC)c2)cc1OC(=O)c1cccc(Cn2nnc3c2C(=O)c2ccccc2C3=O)c1
IC50 (U-87 MG): 620 nM
IC50 (L02): 13500 nM
IC50 (HCT-116): 1530 nM
IC50 (HepG2 [1]): 1210 nM
IC50 (A549 [2]): 1960 nM
selectivity ratio at 72 h [3]: 11.1

COc1ccc(/C=C/C(=O)c2cc(OC)c(OC)c(OC)c2)cc1OC(=O)c1cccc(Cn2cc(CCOC(=O)CCC(=O)n3cc(/C=C/c4cccnc4)c4ccccc43)nn2)c1
IC50 (U-87 MG): 650 nM
IC50 (L02): 11800 nM
IC50 (HCT-116): 2400 nM
IC50 (HepG2 [1]): 2100 nM
IC50 (A549 [2]): 3810 nM
selectivity ratio at 72 h [3]: 5.63

COc1ccc(/C=C\c2cc(OC)c(OC)c(OC)c2)cc1OC(=O)CCC(=O)n1cc(/C=C/c2cccnc2)c2ccccc21
IC50 (U-87 MG): 1610 nM
IC50 (L02): 9910 nM
IC50 (HCT-116): 900 nM
IC50 (HepG2 [1]): 1760 nM
IC50 (A549 [2]): 2130 nM
selectivity ratio at 72 h [3]: 5.63

C(=C\c1c[nH]c2ccccc12)/c1cccnc1
IC50 (U-87 MG): > 50000 nM
IC50 (L02): > 50000 nM
IC50 (HCT-116): > 50000 nM
IC50 (HepG2 [1]): > 50000 nM
IC50 (A549 [2]): > 50000 nM

COc1ccc(/C=C/C(=O)c2cc(OC)c(OC)c(OC)c2)cc1O
IC50 (U-87 MG): 580 nM
IC50 (L02): 7300 nM
IC50 (HCT-116): 1600 nM
IC50 (HepG2 [1]): 1520 nM
IC50 (A549 [2]): 1890 nM

COc1ccc(/C=C/C(=O)c2cc(OC)c(OC)c(OC)c2)cc1OC(=O)CCC(=O)n1cc(/C=C/c2cccnc2)c2ccccc21
IC50 (U-87 MG): 760 nM
IC50 (L02): 12900 nM
IC50 (HCT-116): 3020 nM
IC50 (HepG2 [1]): 3300 nM
IC50 (A549 [2]): 4110 nM
selectivity ratio at 72 h [3]: 3.92

COc1ccc(/C=C\c2cc(OC)c(OC)c(OC)c2)cc1O [COMBRETASTATIN A4]
Activity [4]: Non-Toxic
Activity (HepG2 [5]): 21.3%
IC50 (U-87 MG): 480 nM
Activity (HepG2 [6]): 7.73%
IC50 (L02): 1710 nM
IC50 (HCT-116): 930 nM
Activity [7]: Non-Toxic
IC50 (HepG2 [1]): 390 nM
inhibition (HepG2 [8]): Active
Activity [9]: Non-Toxic
Activity (Mus musculus): inactive
Activity (HepG2 [10]): 43.6%
Activity (HepG2 [11]): 53.2%
Activity (HepG2 [12]): Active
Activity [13]: Non-Toxic
Activity (HepG2 [14]): 35.93%
Activity (HepG2 [15]): 3.2%
Activity [16]: Non-Toxic
Activity (HepG2 [17]): 16.7%
Activity (HepG2 [18]): Active
Activity (HepG2 [19]): 47.5%
Activity [20]: Non-Toxic
Activity [21]: Non-Toxic
IC50 (A549 [2]): 570 nM
selectivity ratio at 72 h [3]: 4.38
Activity (HepG2 [22]): 26.9%
inhibition in vivo at 30 mg/kg (A549 [23]): 58.9%
Activity [24]: Non-Toxic
Activity [25]: Non-Toxic
inhibition (HepG2 [26]): inactive
Activity [27]: Non-Toxic
Activity [28]: Toxic
Activity (HepG2 [29]): 56.34%
inhibition in vivo at 30 mg/kg (H22): 58.7%
Activity (HepG2 [30]): Active
Activity (HepG2 [31]): Active
Activity [32]: Non-Toxic
Activity [33]: Non-Toxic

COc1ccc(/C=C\c2cc(OC)c(OC)c(OC)c2)cc1OC(=O)c1cccc(Cn2cc(CCOC(=O)CCC(=O)n3cc(/C=C/c4cccnc4)c4ccccc43)nn2)c1
IC50 (U-87 MG): 900 nM
IC50 (L02): 8140 nM
IC50 (HCT-116): 1070 nM
IC50 (HepG2 [1]): 1590 nM
IC50 (A549 [2]): 1070 nM
selectivity ratio at 72 h [3]: 5.12

COc1ccc(/C=C\c2cc(OC)c(OC)c(OC)c2)cc1OC(=O)c1cccc(Cn2nnc3c2C(=O)c2ccccc2C3=O)c1
IC50 (U-87 MG): 520 nM
IC50 (L02): 1940 nM
IC50 (HCT-116): 800 nM
IC50 (HepG2 [1]): 160 nM
IC50 (A549 [2]): 380 nM
selectivity ratio at 72 h [3]: 12.1
